Patent US20090208445A1, “Compositions Comprising Eucalyptol And/Or Ocimene And/Or Farnesol For Use As Bumblebee Pheromones” (QUEEN MARY & WESTFIELD COLLEGE, priority 2005, published 2009)

Columns and labels:
Bombus terrestris [1] = assay: Behavioural effect of individual compounds on forager recruitment (foragers leaving the nest in search for food); type: in vivo; conditions: 10 μl of 200 mg l-1 in acetone on filter paper in nest box lid every 5 min for 30 min vs preceding 30 min; 7 repeats, Wilcoxon test
Experimental: All experiments were performed with lab-reared colonies of Bombus terrestris with 30-50 workers. A total of ten colonies were used. Each nest was contained in a wooden box (26 cm·14 cm·10 cm), which was connected to a foraging arena (40 cm·60 cm·30 cm) with a Plexiglas tube of 30 cm length. Nest box and foraging arena had transparent Plexiglas covers, so that the behaviour of the bees could be observed. The arena contained a feeder at certain times of the experiment (see below).
To this end, 10 μl of solution of the individual compounds at 200 mg 1^−1 acetone, were dispensed onto a filter paper placed in a glass tube in the lid of the nest box. This was repeated every 5 minutes for half an hour, and numbers of foragers entering the flight arena in search for food were counted in 5 min intervals during the experimental half hour and in the preceding 30 min (control period). This experiment was repeated 7 times which each individual compound. In addition, 7 control runs were performed with acetone, to exclude the possibility that the solvent itself provoked a behavioural response. Tests were done in random sequence with three bumblebee colonies, with at least 4 h between tests on a single colony. None of the compounds were tested twice on the same day with the same colony.

Bombus terrestris [2] = assay: Mobilisation of individually marked foragers of a colony by eucalyptol; type: in vivo
Experimental: To this end, all foragers were marked that arrived at an ad libitum sucrose feeder in a flight arena connected to a large nest (with >80 workers), over a period of two days. Bees were given individual number plates (Opalith). Then the colony was starved for 1 day, and on the next day, a sucrose feeder was inserted into the arena for one hour. After 30 min, the colony was exposed to eucalyptol as described above. Bees were caught immediately upon arrival, so that they could not provide feedback to the colony.

| Compound | Effect on numbers of foragers leaving the nest in search for food (Bombus terrestris [1]) | Time for the remaining foragers to arrive after exposure of the colony (Bombus terrestris [2]; 13 remaining of 17 active foragers) | Forager force of the colony activated (Bombus terrestris [2]; colony with 17 active marked foragers, starved 1 day, eucalyptol inserted after 30 min) | Number of foragers arriving at the feeder after exposure of the colony (Bombus terrestris [2]; of 17 active foragers, 4 had arrived in the 30 min before exposure) |
| --- | --- | --- | --- | --- |
| CC(C)=CCCC(C)=CCCC(C)=CCO [E,E-farnesol, 3,7,11-trimethyl-2,6,10-dodecatrien-1-ol] | non-significant rise in activity | – | – | – |
| CC12CCC(CC1)C(C)(C)O2 [Eucalyptol, 1,3,3-Trimethyl-2-oxabicyclo[2.2.2.]octane] | strongest response | ≤ 15 min | entire forager force of the colony was activated | 13 foragers |
